We go through eight compounds from PubChem BioAssay (NCI).

Among the test systems are UO-31 renal; MDA-MB-231 breast; UACC-257 melanoma; HT29 colon; SF-268 CNS; OVCAR-4 ovarian; SF-539 CNS; OVCAR-3 ovarian; NCI-H460 lung; MALME-3M melanoma; NCI-H226 lung; BT-549 breast; RPMI-8226 leukemia; NCI-H522 lung; MDA-MB-435; SF-295 CNS; M14 melanoma.
Assay in all cases: NCI-60 cell line screen, 48 h

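Tested at 5 concentrations; 48 h exposure; 96-well plates; endpoints linearly interpolated, else capped at highest concentration. The concentration for full growth arrest is given as TGI.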

Consider `CCCCCCC1OC23OC1CCC2C(O)CCC3O` (stereo not given), for which the TGI in the assay on UO-31 renal, in the assay with MDA-MB-231 breast, with UACC-257 melanoma, in the assay with HT29 colon, in the assay on SF-268 CNS and in the assay on OVCAR-4 ovarian was over 100 µM throughout. The TGI in the assay with SF-539 CNS, with OVCAR-3 ovarian, in the assay on NCI-H460 lung, with MALME-3M melanoma, in the assay with NCI-H226 lung and with BT-549 breast was over 100 µM each time. In addition, the TGI in the assay on RPMI-8226 leukemia, in the assay on NCI-H522 lung, in the assay on MDA-MB-435 and in the assay on SF-295 CNS was over 100 µM throughout.

`COC(=O)c1ccc(CCC2=CC(=O)C=CC2=O)cc1`: the TGI is 19.9 µM in the assay on UO-31 renal; over 68.4 µM in the assay on MDA-MB-231 breast; 22.5 µM in the assay on UACC-257 melanoma; 53.4 µM with HT29 colon; 31.7 µM in the assay with SF-268 CNS; 38.4 µM with OVCAR-4 ovarian. For the same compound, the TGI in the assay on SF-539 CNS worked out at 25.6 µM; with OVCAR-3 ovarian, 23.2 µM; in the assay with NCI-H460 lung, 35.9 µM; in the assay with NCI-H226 lung, 48.3 µM; in the assay on BT-549 breast, 24.4 µM; in the assay with RPMI-8226 leukemia, 5.71 µM. Besides, the TGI is 3.14 µM in the assay on NCI-H522 lung, 32.4 µM with M14 melanoma, 28 µM in the assay on MDA-MB-435 and 30.6 µM with SF-295 CNS.

With `Clc1ccc(C(OCn2ccnc2)c2nc3ccccc3[nH]2)c(Cl)c1` (stereo not given), the TGI is 92.1 µM with UO-31 renal; over 100 µM in the assay with MDA-MB-231 breast; over 100 µM with UACC-257 melanoma; over 100 µM in the assay on HT29 colon; over 100 µM in the assay on SF-268 CNS; over 100 µM with OVCAR-4 ovarian. Moreover, the TGI in the assay on SF-539 CNS was over 100 µM; with OVCAR-3 ovarian, over 100 µM; in the assay with NCI-H460 lung, over 100 µM; in the assay with MALME-3M melanoma it was over 100 µM; in the assay with BT-549 breast it was 81.7 µM; in the assay on RPMI-8226 leukemia, 92.4 µM. In addition, the TGI in the assay with NCI-H522 lung, with M14 melanoma, in the assay with MDA-MB-435 and in the assay with SF-295 CNS was over 100 µM in each case.

As to `CCOC(=O)c1nc2ccc(C(F)(F)F)cc2nc1Oc1ccc(OC)cc1`, the TGI in the assay on UO-31 renal, with MDA-MB-231 breast, with UACC-257 melanoma, with HT29 colon, with SF-268 CNS and in the assay with OVCAR-4 ovarian was over 100 µM in each case. Also, the TGI with SF-539 CNS, in the assay with OVCAR-3 ovarian, in the assay on NCI-H460 lung, with MALME-3M melanoma, with NCI-H226 lung and in the assay with BT-549 breast was over 100 µM each time. For the same compound, the TGI in the assay on RPMI-8226 leukemia, in the assay on M14 melanoma, in the assay on MDA-MB-435 and in the assay with SF-295 CNS was over 100 µM in each case.

In the case of `O=C(O)CCC(NC(=O)c1ccc(Nc2nc3ccc(C(F)(F)F)cc3nc2C(=O)O)cc1)C(=O)O` (stereo not given), the TGI in the assay with UO-31 renal, in the assay with MDA-MB-231 breast, with UACC-257 melanoma, in the assay on HT29 colon, in the assay on SF-268 CNS and in the assay on SF-539 CNS was over 100 µM throughout. The TGI with OVCAR-3 ovarian, with NCI-H226 lung, in the assay on BT-549 breast, in the assay on RPMI-8226 leukemia, in the assay with NCI-H522 lung and with M14 melanoma was over 100 µM each time. For the same compound, the TGI in the assay with MDA-MB-435 and in the assay on SF-295 CNS was over 100 µM throughout.

Consider `CC1(c2ccc(Cl)cc2)C=C(c2ccc(Cl)cc2)C(C#N)=C(C(C#N)C#N)N1` (stereo not given), for which the TGI in the assay on UO-31 renal stood at 30.5 µM; in the assay with MDA-MB-231 breast it was 54.9 µM; in the assay on UACC-257 melanoma it was 37.3 µM; with HT29 colon, 32.8 µM; with SF-268 CNS it was 23.9 µM; with OVCAR-4 ovarian, 32.6 µM. Moreover, the TGI in the assay on SF-539 CNS amounted to 43.9 µM; with OVCAR-3 ovarian, 21.3 µM; in the assay with NCI-H460 lung, 52.9 µM; in the assay on MALME-3M melanoma, 29.1 µM; with NCI-H226 lung, 98.2 µM; with BT-549 breast, 43.3 µM. In addition, the TGI in the assay on RPMI-8226 leukemia was over 100 µM; in the assay on M14 melanoma it was 36 µM; in the assay with MDA-MB-435, 34.5 µM; with SF-295 CNS, 33.9 µM.

Regarding `CCc1nc(N)nc(N)c1-c1ccc(N2CCOCC2)c(N=[N+]=[N-])c1`, the TGI in the assay with UO-31 renal, with MDA-MB-231 breast, with UACC-257 melanoma, in the assay on HT29 colon, in the assay with SF-268 CNS and in the assay with OVCAR-4 ovarian was over 100 µM throughout. Also, the TGI with SF-539 CNS, in the assay on OVCAR-3 ovarian, in the assay on NCI-H460 lung, in the assay with NCI-H226 lung, in the assay on BT-549 breast and in the assay on RPMI-8226 leukemia was over 100 µM each time. The TGI with NCI-H522 lung is 37.9 µM; in the assay with M14 melanoma, over 100 µM; with MDA-MB-435, over 100 µM; in the assay on SF-295 CNS, over 100 µM.

In the case of `O=[N+]([O-])c1ccc2c3c1[C@@H]1O[C@@H]1c1cccc(c1-3)[C@@H]1O[C@H]21`, the TGI with MDA-MB-231 breast was 15.3 µM; in the assay with UACC-257 melanoma, over 25.1 µM; with HT29 colon it was 14.7 µM; with SF-268 CNS, 10.6 µM; with OVCAR-4 ovarian it was 9.48 µM; in the assay with SF-539 CNS, 4.02 µM. In addition, the TGI was 10.9 µM in the assay on OVCAR-3 ovarian; 12.7 µM with MALME-3M melanoma; over 80.9 µM in the assay with NCI-H226 lung; 21.1 µM with BT-549 breast; over 100 µM with RPMI-8226 leukemia; 3.33 µM in the assay with NCI-H522 lung. Further, the TGI turned out to be 9.9 µM with M14 melanoma, 5.22 µM in the assay with MDA-MB-435 and 40.8 µM in the assay on SF-295 CNS.
